Measurements reported in ChEMBL document CHEMBL4138216, “Design, synthesis and structure-activity relationship of a focused library of β-phenylalanine derivatives as novel eEF2K inhibitors with apoptosis-inducing mechanisms in breast cancer” (Eur J Med Chem, 2018).
pIC50: −log10 of the molar value.

What was measured:
[1] = target: T1, Eukaryotic elongation factor 2 kinase (Homo sapiens, UniProt O00418); experiment: Inhibition of eEF2K (unknown origin) using peptide MH-1 as substrate after 2 hrs by ADP-Glo luminescent assay
T1 sequence (O00418 whole entry): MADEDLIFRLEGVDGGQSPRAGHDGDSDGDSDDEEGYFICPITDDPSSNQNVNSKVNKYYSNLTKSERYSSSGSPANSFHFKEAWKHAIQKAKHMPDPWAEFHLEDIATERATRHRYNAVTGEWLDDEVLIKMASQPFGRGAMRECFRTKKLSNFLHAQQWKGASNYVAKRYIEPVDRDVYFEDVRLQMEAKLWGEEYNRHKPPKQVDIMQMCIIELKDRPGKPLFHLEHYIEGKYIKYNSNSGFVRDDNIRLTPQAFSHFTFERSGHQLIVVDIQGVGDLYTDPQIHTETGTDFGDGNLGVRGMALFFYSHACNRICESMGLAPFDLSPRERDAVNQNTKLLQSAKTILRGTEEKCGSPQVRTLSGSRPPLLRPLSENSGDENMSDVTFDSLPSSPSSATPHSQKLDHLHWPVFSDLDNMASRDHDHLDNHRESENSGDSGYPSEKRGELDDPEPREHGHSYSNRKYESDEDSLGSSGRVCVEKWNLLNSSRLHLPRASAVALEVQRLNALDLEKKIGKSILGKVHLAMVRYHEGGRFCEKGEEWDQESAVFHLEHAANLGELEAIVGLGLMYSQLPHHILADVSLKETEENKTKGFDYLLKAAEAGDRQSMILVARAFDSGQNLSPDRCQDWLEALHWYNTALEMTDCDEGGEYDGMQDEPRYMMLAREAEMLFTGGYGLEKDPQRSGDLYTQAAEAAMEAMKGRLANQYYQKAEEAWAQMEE

MDA-MB-436 = experiment: Antiproliferative activity against human MDA-MB-436 cells assessed as decrease in cell viability after 24 hrs by MTT assay; format: functional, cell-based; details: MDA-MB-436, 24 h
MDA-MB-231 = experiment: cells; details: Homo sapiens, MDA-MB-231, 24 h
Description: Antiproliferative activity against human MDA-MB-231 cells assessed as decrease in cell viability after 24 hrs by MTT assay

[2] = target: T1, Eukaryotic elongation factor 2 kinase; experiment: Inhibition of N-terminal GST-tagged recombinant human eEF2K expressed in Escherichia coli using biotinylated myelin basic protein as substrate after 45 mins in presence of [gamma-33P]-ATP by scintillation counting method
[3] = target: T2, Eukaryotic elongation factor 2 kinase (Rattus norvegicus, UniProt P70531); experiment: Inhibition of recombinant rat GST-tagged eEF2K expressed in Escherichia coli BL21 (DE3) cells using yeast eEF2 as substrate preincubated for 30 mins followed by ATP/[gamma-32P]-ATP addition measured after 10 mins
T2 sequence (P70531 whole entry): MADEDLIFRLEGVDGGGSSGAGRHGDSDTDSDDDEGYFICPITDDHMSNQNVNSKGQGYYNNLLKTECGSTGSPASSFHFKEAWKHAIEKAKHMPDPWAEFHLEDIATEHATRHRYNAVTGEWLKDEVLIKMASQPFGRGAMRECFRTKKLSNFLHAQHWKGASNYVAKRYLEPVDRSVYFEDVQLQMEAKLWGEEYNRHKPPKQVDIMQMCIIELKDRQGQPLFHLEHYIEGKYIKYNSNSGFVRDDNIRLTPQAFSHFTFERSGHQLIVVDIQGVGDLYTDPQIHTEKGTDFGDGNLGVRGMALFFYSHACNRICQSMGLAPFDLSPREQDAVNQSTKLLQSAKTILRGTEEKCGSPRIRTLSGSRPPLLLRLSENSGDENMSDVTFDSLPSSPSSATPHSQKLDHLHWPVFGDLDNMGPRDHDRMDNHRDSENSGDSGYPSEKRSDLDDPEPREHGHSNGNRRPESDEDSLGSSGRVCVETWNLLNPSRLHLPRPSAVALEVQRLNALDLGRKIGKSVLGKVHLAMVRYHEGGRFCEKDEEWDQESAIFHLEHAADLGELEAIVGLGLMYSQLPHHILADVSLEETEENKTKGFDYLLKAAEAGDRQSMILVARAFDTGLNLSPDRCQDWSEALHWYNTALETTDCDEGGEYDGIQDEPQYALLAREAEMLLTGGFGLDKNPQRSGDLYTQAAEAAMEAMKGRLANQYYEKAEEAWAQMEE

Compound	pIC50 [1]	pIC50 (MDA-MB-436)	pIC50 (MDA-MB-231)	pIC50 [2]	pIC50 [3]
O=C(O)CC(NC(=O)c1ccc(Cl)cc1Cl)c1ccccc1 (centres undefined)	4.53	4.11	4.17	–	–
O=C(O)CC(NS(=O)(=O)c1cc(F)cc(F)c1)c1ccccc1 (centres undefined)	4.42	4.16	4.10	–	–
COc1ccccc1C(=O)NC(CC(=O)O)c1ccc(Cl)cc1Cl (centres undefined)	< 4.30	< 4.00	< 4.00	–	–
O=C(O)CC(NS(=O)(=O)c1ccc(F)cc1)c1ccccc1 (centres undefined)	4.51	< 4.00	4.05	–	–
CC(C)(C)c1ccc(C(CC(=O)O)NS(=O)(=O)c2ccccc2)cc1 (centres undefined)	< 4.30	< 4.00	< 4.00	–	–
CC(C)(C)c1ccc(C(CC(=O)O)NC(=O)c2ccc(F)cc2)cc1 (centres undefined)	4.50	< 4.00	4.06	–	–
O=C(O)CC(NC(=O)c1ccc(Cl)cc1Cl)c1ccc(Cl)cc1Cl (centres undefined)	4.70	4.24	4.31	–	–
O=C(O)CC(NS(=O)(=O)c1ccc(C(F)(F)F)cc1)c1ccc(Cl)cc1Cl (centres undefined)	5.02	4.42	4.52	–	–
O=C(O)CC(NS(=O)(=O)c1ccc(C(F)(F)F)cc1)c1ccccc1F (centres undefined)	4.94	4.25	4.33	–	–
CC(C)(C)c1ccc(C(CC(=O)O)NC(=O)c2ccc(C(F)(F)F)cc2)cc1 (centres undefined)	4.65	4.08	4.10	–	–
O=C(O)CC(NC(=O)c1ccc(F)cc1)c1ccc(Cl)cc1Cl (centres undefined)	4.77	4.25	4.23	–	–
O=C(O)CC(NS(=O)(=O)c1cc(F)cc(F)c1)c1ccc(Cl)cc1Cl (centres undefined)	4.90	4.30	4.45	–	–
O=C(O)CC(NC(=O)c1cccc(Br)c1)c1ccc(Cl)cc1Cl (centres undefined)	4.55	< 4.00	4.08	–	–
O=C(O)CC(NC(=O)c1ccc(C(F)(F)F)cc1)c1ccccc1F (centres undefined)	4.35	4.18	4.23	–	–
CC(C)(C)c1ccc(C(CC(=O)O)NC(=O)c2ccc(Cl)cc2Cl)cc1 (centres undefined)	4.62	< 4.00	4.17	–	–
O=C(O)CC(NS(=O)(=O)c1ccccc1)c1ccccc1 (centres undefined)	< 4.30	< 4.00	< 4.00	–	–
COc1ccccc1C(=O)NC(CC(=O)O)c1ccccc1 (centres undefined)	< 4.30	< 4.00	< 4.00	–	–
O=C(O)CC(NC(=O)c1ccc(F)cc1)c1ccccc1 (centres undefined)	4.45	< 4.00	4.07	–	–
O=C(O)CC(NS(=O)(=O)c1cccc([N+](=O)[O-])c1)c1ccc(Cl)cc1Cl (centres undefined)	4.35	< 4.00	4.11	–	–
CC(C)(C)c1ccc(C(CC(=O)O)NS(=O)(=O)c2ccc(F)cc2)cc1 (centres undefined)	4.41	4.16	4.18	–	–
COc1ccc(C(=O)NC(CC(=O)O)c2ccc(C(C)(C)C)cc2)cc1 (centres undefined)	4.32	< 4.00	< 4.00	–	–
O=C(O)CC(NC(=O)c1ccc(C(F)(F)F)cc1)c1ccc(Cl)cc1Cl (centres undefined)	4.93	4.36	4.41	–	–
O=C(O)CC(NS(=O)(=O)c1cccc([N+](=O)[O-])c1)c1ccccc1 (centres undefined)	< 4.30	< 4.00	< 4.00	–	–
N#Cc1ccc(S(=O)(=O)NC(CC(=O)O)c2ccccc2)cc1 (centres undefined)	4.73	4.23	4.31	–	–

Compound	pIC50 [1]	pIC50 (MDA-MB-436)	pIC50 (MDA-MB-231)	pIC50 [2]	pIC50 [3]
CCCCCCCCCCCCCCCC[N+]1=C(C)N(Cc2ccccc2)CC1	–	–	–	7.22	–
COc1ccccc1C(=O)NC(CC(=O)O)c1ccc(C(C)(C)C)cc1 (centres undefined)	< 4.30	< 4.00	< 4.00	–	–
O=C(O)CC(NC(=O)c1cccc(Br)c1)c1ccccc1F (centres undefined)	< 4.30	< 4.00	< 4.00	–	–
CC(C)(C)c1ccc(C(CC(=O)O)NS(=O)(=O)c2ccc(C(F)(F)F)cc2)cc1 (centres undefined)	4.74	4.22	4.27	–	–
O=C(O)CC(NS(=O)(=O)c1ccccc1Br)c1ccccc1 (centres undefined)	< 4.30	< 4.00	< 4.00	–	–
O=C(O)CC(NC(=O)c1ccc(F)cc1)c1ccccc1F (centres undefined)	4.44	< 4.00	4.14	–	–
O=C(O)CC(NC(=O)c1c(Cl)cccc1Cl)c1ccc(Cl)cc1Cl (centres undefined)	< 4.30	< 4.00	< 4.00	–	–
CNC(=O)c1cc(Oc2ccc(NC(=O)Nc3ccc(Cl)c(C(F)(F)F)c3)cc2)ccn1 [SORAFENIB]	–	5.38	5.55	–	–
CC(C)(C)c1ccc(C(CC(=O)O)NS(=O)(=O)c2ccc(OC(F)(F)F)cc2)cc1 (centres undefined)	< 4.30	< 4.00	< 4.00	–	–
CC(C)(C)c1ccc(C(CC(=O)O)NC(=O)c2c(Cl)cccc2Cl)cc1 (centres undefined)	< 4.30	< 4.00	< 4.00	–	–
O=C(O)CC(NS(=O)(=O)c1ccccc1)c1ccccc1F (centres undefined)	< 4.30	< 4.00	< 4.00	–	–
COc1ccc(C(=O)NC(CC(=O)O)c2ccc(Cl)cc2Cl)cc1 (centres undefined)	4.35	< 4.00	< 4.00	–	–
O=C(O)CC(NC(=O)c1c(Cl)cccc1Cl)c1ccccc1 (centres undefined)	< 4.30	< 4.00	< 4.00	–	–
CC(C)(C)c1ccc(S(=O)(=O)NC(CC(=O)O)c2ccccc2)cc1 (centres undefined)	< 4.30	< 4.00	< 4.00	–	–
O=C(O)CC(NC(=O)c1cccc(Br)c1)c1ccccc1 (centres undefined)	< 4.30	< 4.00	< 4.00	–	–
O=C(O)CC(NC(=O)c1ccc(Cl)cc1Cl)c1ccccc1F (centres undefined)	4.47	< 4.00	4.05	–	–
N#Cc1ccc(S(=O)(=O)NC(CC(=O)O)c2ccccc2F)cc1 (centres undefined)	4.56	4.11	4.16	–	–
O=C(O)CC(NS(=O)(=O)c1ccc(OC(F)(F)F)cc1)c1ccccc1 (centres undefined)	< 4.30	< 4.00	< 4.00	–	–
CCC1(O)CC(C(C)C)[Se]C(c2ccc(C)cc2)=N1 (centres undefined)	–	–	–	–	6.44
O=C(O)CC(NS(=O)(=O)c1ccccc1Br)c1ccc(Cl)cc1Cl (centres undefined)	< 4.30	< 4.00	< 4.00	–	–
COc1ccccc1S(=O)(=O)NC(CC(=O)O)c1ccc(C(C)(C)C)cc1 (centres undefined)	< 4.30	< 4.00	< 4.00	–	–
O=C(O)CC(NS(=O)(=O)c1ccc(C(F)(F)F)cc1)c1ccccc1 (centres undefined)	4.71	4.26	4.25	–	–
O=C(O)CC(NS(=O)(=O)c1ccccc1)c1ccc(Cl)cc1Cl (centres undefined)	4.48	4.23	4.24	–	–
O=C(O)CC(NS(=O)(=O)c1cc(F)cc(F)c1)c1ccccc1F (centres undefined)	4.71	4.05	4.13	–	–
